This test concerns alkaline protease M3 from Streptomyces globisporus B-1829 strain (ATCC 21553). As to the kind of experiment: Protease activity (casein hydrolysis) in the presence of additives. Format: biochemical.
The mark [1] stands for this setting: additive 10^-3 M, protease activity, no additive = 100.

Structures can show the parent of a compound that is named as a salt. Where two headings read alike, the source gives them in different places.

Consider `O=C(O)CI` [Iodoacetic acid], for which the “Effect by additive on activity (in words)” value was “substantially not inhibited”, the “Inhibition of protease activity (in words)” value was “substantially not inhibited” and the “Relative activity (%)” value was 118%. As to `O=C(O)CCC(=O)O` [Succinic acid], the “Relative activity (%)” value under setting [1] turned out to be 113%. As for `NC(N)=S` [Thiourea], the “Relative activity (%)” value was found to be 119%. Regarding `O=C1O[C@H]([C@@H](O)CO)C(O)=C1O` [L-Ascorbic acid], under setting [1], the “Relative activity (%)” value is 110%. `NNC(N)=O` [Semicarbazide hydrochloride]: the “Relative activity (%)” value stood at 116%. In the case of `O=C1CCC(=O)N1Br` [NBS, N--Bromosuccinimide], the “Relative activity (%)” value stood at 85% under setting [1] and 0% (additive 10^-4 M, protease activity, no additive = 100). In addition, the “Inhibition of protease activity (in words)” value (additive in an amount of 10^-4 M) is given as “completely inhibited”.

The values are drawn from US4364926A, “Novel alkaline protease M3 method for the preparation thereof and dental caries-prophylactic composition containing the same” (Dainippon Pharmaceutical Co., Ltd., priority 1980, dated 1982).
